Reference: article PMC11187126, “Structure and dynamics of the pyroglutamylated RF-amide peptide QRFP receptor GPR103” (Nature Communications, 2024)
Like-named read-outs stand apart in the source and are kept apart here. No end group written: not given here.

Molecular target: T1, GPR103 W286^6.48A (Homo sapiens, UniProt Q96P65, W286A)
T1 construct: we used human full-length QRFPR-encoding plasmids; expressed in transfected cells; host or cells: HEK293 cells (HEK293A in the flow cytometry section), pCAGGS vector
T1 sequence (Q96P65 1-431 W286A): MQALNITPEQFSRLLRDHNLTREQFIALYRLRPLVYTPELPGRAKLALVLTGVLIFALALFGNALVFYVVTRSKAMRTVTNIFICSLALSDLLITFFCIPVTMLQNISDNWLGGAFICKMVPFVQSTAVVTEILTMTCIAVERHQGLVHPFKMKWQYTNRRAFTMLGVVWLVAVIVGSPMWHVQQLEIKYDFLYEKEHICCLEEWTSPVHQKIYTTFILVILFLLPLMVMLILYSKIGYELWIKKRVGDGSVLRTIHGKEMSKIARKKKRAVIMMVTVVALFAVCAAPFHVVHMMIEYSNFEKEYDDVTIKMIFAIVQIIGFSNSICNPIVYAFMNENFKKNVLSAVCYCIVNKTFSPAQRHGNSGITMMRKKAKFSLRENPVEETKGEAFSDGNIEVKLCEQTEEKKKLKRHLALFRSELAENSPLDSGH
Assay: TGFα shedding assay; Exp. level WT (1:20)
Format: cell-based

Emax (Exp. #1): 72.87 % WT | Emax (Exp. #2): 70.40 % WT | Emax (Exp. #3): 78.23 % WT | Emax (mean, read-out: Emax): 73.8% | EC50 (n = 3): 1.12 µM | Emax (n = 3, read-out: Emax): 75.7 ± 1.9%
Substance: TSGPLGNLAEELNGYSRKKGGFSFRF-NH2 [QRFP26]
